Laboratory results from patent publication US20240075049A1 (priority 2020, published 2024).

Tests used:
[1] = adverse reaction in a treated coronavirus patient; type: in vivo, human; details: person, doxycycline 100 mg bd added to amantadine, ivermectin, zinc
Protocol: A front-line worker and was diagnosed with coronavirus in association with fevers, aches and fatigue. They are commenced on amantadine orally using the standard capsule of […] once daily for ten days. […] They developed a rash to the doxycycline when added and this was changed to azithromycin 250 mg bd for the duration of the ten-day course.

[2] = in vivo; cited from earlier work
[3] = ivermectin toxicity at high doses, relation to LD50; type: in vivo; details: 2000 mcg/kg (120 mg in a 60 kg adult)
[4] = in vivo; cited from earlier work; remark: listed apart in the source
[5] = more than 200 mcg/kg (12 mg), 2000 mcg/kg (120 mg) and above; cited from earlier work

**Q.** With `C[C@H]1c2cccc(O)c2C(=O)C2=C(O)[C@]3(O)C(=O)C(C(N)=O)=C(O)[C@@H](N(C)C)[C@@H]3[C@@H](O)[C@@H]21` [doxycycline] as the compound, how does the adverse reaction [1] read?
**A.** Its adverse reaction is “rash”.

**Q.** With `CCN(CCO)CCCC(C)Nc1ccnc2cc(Cl)ccc12` (centres unmarked) [hydroxychloroquine] as the compound, how does the half-life [2] read?
**A.** The half-life was 40 days.

**Q.** For ivermectin, which “dose as percentage of the LD50” value [3] is on record?
**A.** The value was 7%.

**Q.** What about the excretion [4] of the same compound?
**A.** The excretion was “mostly in the feces”.

**Q.** What about the “toxicity at doses above the accepted therapeutic dose” value [5] of the same compound?
**A.** Its value is “without any increase in ivermectin toxicity”.
